Values of other authors, collected in patent publication US12655168B2, “Isolation of steviol glycosides” (DSM IP ASSETS B.V., priority 2019, dated 2026).

Tests used:
[1] = Type II diabetics
[2] = mildly hypertensive patients
[3] = relative to sucrose
[4] = new hemihydrate crystal form; obtained after heating and cooling a 0.06% reb B solution to room temperature

C=C1C[C@@]23CC[C@H]4[C@@](C)(CCC[C@@]4(C)C(=O)O[C@@H]4O[C@H](CO)[C@@H](O)[C@H](O)[C@H]4O)[C@@H]2CC[C@]1(O[C@@H]1O[C@H](CO)[C@@H](O)[C@H](O)[C@H]1O[C@@H]1O[C@H](CO)[C@@H](O)[C@H](O)[C@H]1O)C3 [Stevioside]
effect on blood glucose levels [1]: reduce blood glucose levels
effect on blood pressure [2]: reduce blood pressure

C=C1C[C@@]23CC[C@H]4[C@@](C)(CCC[C@@]4(C)C(=O)O[C@@H]4O[C@H](CO)[C@@H](O)[C@H](O)[C@H]4O[C@@H]4O[C@H](CO)[C@@H](O)[C@H](O)[C@H]4O)[C@@H]2CC[C@]1(O[C@@H]1O[C@H](CO)[C@@H](O)[C@H](O[C@@H]2O[C@H](CO)[C@@H](O)[C@H](O)[C@H]2O)[C@H]1O[C@@H]1O[C@H](CO)[C@@H](O)[C@H](O)[C@H]1O)C3 [rebaudioside D]
times sweeter than sucrose [3]: about 200 times

rebaudioside B
solubility in water [4]: 50 ppm
